Counter-ions that a name gives are not always drawn.
Test: in vitro
Conditions: rat, gh3-tre-luc cells, AC50 (uM) modified / 1000

Compound | CC50 at 24 h [µM]
CCOc1ccc([N+](=O)[O-])cc1 [1-Ethoxy-4-nitrobenzene] | 39.1
CC(C)=CCOc1c2occc2cc2ccc(=O)oc12 [Imperatorin] | > 50
O=C1CCC(C2CCCCC2)CC1 [4-Cyclohexylcyclohexanone] | > 90
Cc1cc(O)c2ccccc2c1O [Menadiol] | 37.2
ClC(Cl)=C(Cl)C(Cl)=C(Cl)Cl [Hexachloro-1,3-butadiene] | > 90
CC(C)(O)Cc1ccccc1 [2-Methyl-1-phenylpropan-2-ol] | > 90
CCOc1ccc2nc(N)sc2c1 [2-Amino-6-ethoxybenzothiazole] | > 90
C[C@@H]1O[C@@H](O[C@@H]2[C@@H](O)[C@H](OCCc3ccc(O)c(O)c3)O[C@H](CO[C@@H]3O[C@H](CO)[C@@H](O)[C@H](O)[C@H]3O)[C@H]2OC(=O)/C=C/c2ccc(O)c(O)c2)[C@H](O)[C@H](O)[C@H]1O [Echinacoside] | > 90
CC/C=C/CCCCCCCCCCOC(C)=O [(E)-11-Tetradecen-1-ol acetate] | > 90
CC1=C(C/C=C(\C)CCC[C@H](C)CCC[C@H](C)CCCC(C)C)C(=O)c2ccccc2C1=O [Phytonadione] | > 50
C1CCC(SSC2CCCCC2)CC1 [Dicyclohexyl disulfide] | > 90
CN[C@@H]1CCc2[nH]c3ccc(C(N)=O)cc3c2C1 [Frovatriptan Succinate monohydrate] | > 50
COC(=O)[C@@H](N)CS [Methyl L-cysteinate hydrochloride] | > 50
O=C(O)CN(CC(=O)O)CC(=O)O [Nitrilotriacetic acid] | > 90
CCCCCCCCCCCC(=O)N(CCO)CCO [N,N-Bis(2-hydroxyethyl)dodecanamide] | 42.5
c1ccc2occc2c1 [2,3-Benzofuran] | > 90
Cc1ccc(-c2c(Cl)nc(C#N)n2S(=O)(=O)N(C)C)cc1 [Cyazofamid] | 40.3
COc1ccc(C(=O)N2CCN(CC(=O)N3CCOCC3)CC2)cc1 [Molracetam] | > 50
O=C(OCC(O)CO)c1ccccc1Nc1ccnc2cc(Cl)ccc12 (stereo not drawn) [Glafenine hydrochloride] | > 20
C=CCOC(=O)CCCCCCCC [Allyl nonanoate] | > 90
Clc1cccc(-c2cc(Cl)cc(Cl)c2)c1 [Aroclor 1016] | > 90
CC(=O)OCc1ccco1 [Furfuryl acetate] | > 90
COc1cc(S(=O)(=O)O)c(C)cc1N=Nc1c(O)ccc2cc(S(=O)(=O)O)ccc12 [Allura Red C.I.16035] | 37.7
Oc1ccc([C@@H]2CNCc3c2ccc(O)c3O)cc1O [Zelandopam] | 39.3
OCCCC1CCCCC1 [3-Cyclohexylpropan-1-ol] | > 90
OCCCCCO [1,5-Pentanediol] | > 100

Compound | CC50 at 24 h [µM]
CC[C@@]1(c2ccccc2)NC(=O)N(C)C1=O [(S)-Mephenytoin] | > 50
C=CC(=O)OC [Methyl acrylate] | > 90
CC(C)CC(C)(N)C#N (stereo not drawn) [2-Amino-2,4-dimethylpentanenitrile] | > 90
O=Cc1ccc([N+](=O)[O-])cc1 [4-Nitrobenzaldehyde] | > 90
CS(=O)(=O)Cl [Methanesulfonyl chloride] | > 90
CC(C)c1ccccc1 [Cumene] | > 100
O=C1c2ccccc2S(=O)(=O)N1CCCCN1CCN(c2ncccn2)CC1 [Ipsapirone] | > 50
CC(=O)OC(C(=O)c1ccccc1)c1ccccc1 (stereo not drawn) [Benzoin acetate] | > 90
C#CCN1CC(=O)N(COC(=O)C2C(C=C(C)C)C2(C)C)C1=O (stereo not drawn) [Imiprothrin] | > 50
C=CC[N+]1([C@H]2C[C@H]3[C@@H]4CC[C@H]5C[C@H](O)[C@@H](N6CCOCC6)C[C@]5(C)[C@H]4CC[C@]3(C)[C@H]2OC(C)=O)CCCC1 [Rocuronium bromide] | > 50
O=C(OC[C@H]1O[C@](O)(COC(=O)c2cccnc2)[C@@H](OC(=O)c2cccnc2)[C@@H]1OC(=O)c1cccnc1)c1cccnc1 [Nicofuranose] | > 50
O=C1NCN(c2ccccc2)C12CCN(CC1COc3ccccc3O1)CC2 (stereo not drawn) [Spiroxatrine] | 36.3
Cc1cc(NC(=O)C2=C(O)c3ccccc3S(=O)(=O)N2C)no1 [Isoxicam] | > 50
COC(N)=O [Methyl carbamate] | > 90
Cc1oc(=O)oc1CN1CCN(c2cc3c(cc2F)c(=O)c(C(=O)O)c2n3C(C)S2)CC1 (stereo not drawn) [Prulifloxacin] | > 50
Cc1cc2nc3c(=O)[nH]c(=O)nc-3n(C[C@H](O)[C@H](O)[C@H](O)COP(=O)(O)OP(=O)(O)OC[C@H]3O[C@@H](n4cnc5c(N)ncnc54)[C@H](O)[C@@H]3O)c2cc1C [Flavin adenine dinucleotide disodium] | > 50
CCCCC(CC)COCCCN (stereo not drawn) [3-((2-Ethylhexyl)oxy)propylamine] | > 90
FC(F)(F)C(F)(F)C(F)(F)C(F)(F)C(F)(F)C(F)(F)C(F)(F)C(F)(F)Br [1-Bromoheptadecafluorooctane] | > 50
C[N+]1(C)[C@@H]2C[C@@H](OC(=O)C(O)(c3cccs3)c3cccs3)C[C@H]1[C@@H]1O[C@@H]12 [Tiotropium bromide] | > 50
O=C(Oc1ccc(Br)cc1)N1CCN2CCC1CC2 [SSR180711] | 44
C[C@H]1C[C@H]2[C@@H]3CCC4=CC(=O)C=C[C@]4(C)[C@H]3C(=O)C[C@]2(C)[C@@]1(O)C(=O)CO [Meprednisone] | > 50
COc1cc(OC)nc(Sc2cccc(Cl)c2C(=O)O)n1 [Pyrithiobac-sodium] | > 90
Nc1ccc(S(=O)(=O)Nc2cnc3ccccc3n2)cc1 [Sulfaquinoxaline] | > 90
CC(C)(O)c1ccc(C(C)(C)O)cc1 [1,4-Bis(2-hydroxy-2-propyl)benzene] | > 90
O=C(CCCN1CC=C(n2c(=O)[nH]c3ccccc32)CC1)c1ccc(F)cc1 [Droperidol] | > 50
COC(=O)c1ccccc1C(=O)OC [Dimethyl phthalate] | > 50

Compound | CC50 at 24 h [µM]
O=C[C@H](O)[C@@H](O)[C@H](O)[C@H](O)CO (racemic) [DL-Glucose] | > 50
Cc1cccc(CN2CCN(C(c3ccccc3)c3ccc(Cl)cc3)CC2)c1 (stereo not drawn) [Meclozine dihydrochloride] | 15.6
CC1=C(C(=O)Nc2ccccc2)S(=O)(=O)CCO1 [Oxycarboxin] | 40.7
CCCC(=O)OC[C@@H](OC(=O)CCC)[C@@H](OC(=O)CCC)[C@H](Cn1c2nc(=O)[nH]c(=O)c-2nc2cc(C)c(C)cc21)OC(=O)CCC [Riboflavin tetrabutyrate] | > 50
CCN(CC)C(=O)N[C@H]1C[C@@H]2c3cccc4[nH]cc(c34)C[C@H]2N(C)C1 [Terguride] | > 50
OCCOCC#CCOCCO [1,4-Bis(2-hydroxyethoxy)-2-butyne] | > 90
CN1C(=O)CCS(=O)(=O)C1c1ccc(Cl)cc1 (stereo not drawn) [Chlormezanone] | > 90
Nc1ccc(N=Nc2ccccc2)c(N)c1 [C.I. Basic Orange 2] | 64.1
CC(=O)OCCC1CCCCC1 [2-Cyclohexylethyl acetate] | > 90
C#CC(C)(O)CC(C)C (stereo not drawn) [3,5-Dimethyl-1-hexyn-3-ol] | > 90
O=[N+]([O-])c1ccc(NCCO)c(OCCO)c1 [HC Yellow 4] | 58.6
COc1cc(Nc2c(C#N)cnc3cc(OCCCN4CCN(C)CC4)c(OC)cc23)c(Cl)cc1Cl [Bosutinib methanoate] | 8.85
CC(C[N+](C)(C)C)OC(N)=O (stereo not drawn) [Bethanechol] | > 50
Nc1nc2ccccc2[nH]1 [2-Aminobenzimidazole] | > 90
C=C(C)C(=O)OCCCC [Butyl methacrylate] | > 90
CCCCC1CCC(=O)O1 (stereo not drawn) [4-Octanolide] | > 90
CCC1COC(=O)O1 (stereo not drawn) [Butylene carbonate] | > 90
CCCc1nc(C(C)(C)O)c(C(=O)OCc2oc(=O)oc2C)n1Cc1ccc(-c2ccccc2-c2nnn[nH]2)cc1 [Olmesartan medoxomil] | > 50
CC1(C)SC(C)(C)SC(C)(C)S1 [Trithioacetone] | > 90
COc1ccc(CCO)cc1 [4-Methoxybenzeneethanol] | > 90
Sc1ncccn1 [Pyrimidine-2-thiol] | > 90
CCCCCCCCCCCCc1ccc(O)cc1 [4-Dodecylphenol] | 15.6
COc1cc(C=O)cc2c1[C@H](COC(N)=O)[C@]1(OC(C)=O)ON2C[C@H]2[C@@H]1N2C(C)=O [PharmaGSID_48166] | 1.23
CC1(C)CCC(Cc2ccc(Cl)cc2)C1(O)Cn1cncn1 (stereo not drawn) [Metconazole] | 82.6
O=c1[nH]c2ccccc2n1CCCN1CCN(C(c2ccccc2)c2ccccc2)CC1 [Oxatomide] | 20.3

Same assay, conditions: rat, gh3-tre-luc cells, AC50 (uM) modified / 1000, Tox21_110001=Tox21_111026; viability, 1 nM T3 present, 24 h

Compound | CC50 at 24 h [µM]
O=C1CCO1 [beta-Propiolactone] | > 50

Same assay, conditions: rat, gh3-tre-luc cells, AC50 (uM) modified / 1000, Tox21_110001=Tox21_111751; viability, 1 nM T3 present, 24 h

Compound | CC50 at 24 h [µM]
COC1=CC=C2[C@H]3Cc4ccc(OC)c5c4[C@@]2(CCN3C)[C@H]1O5 [Thebaine] | > 20

Same assay, conditions: rat, gh3-tre-luc cells, AC50 (uM) modified / 1000, Tox21_110001=Tox21_112863; viability, 1 nM T3 present, 24 h

Compound | CC50 at 24 h [µM]
COC1=CC=C2[C@H]3Cc4ccc(OC)c5c4[C@@]2(CCN3C)[C@H]1O5 [Thebaine] | > 90

Same assay, conditions: rat, gh3-tre-luc cells, AC50 (uM) modified / 1000, Tox21_110001=Tox21_201525; viability, 1 nM T3 present, 24 h

Compound | CC50 at 24 h [µM]
CSSC [Methyl disulfide] | > 90

Same assay, conditions: rat, gh3-tre-luc cells, AC50 (uM) modified / 1000, Tox21_110001=Tox21_301196; viability, 1 nM T3 present, 24 h

Compound | CC50 at 24 h [µM]
N#CCC#N [Propanedinitrile] | 40.5

Same assay, conditions: rat, gh3-tre-luc cells, AC50 (uM) modified / 1000, Tox21_110001=Tox21_301514; viability, 1 nM T3 present, 24 h

Compound | CC50 at 24 h [µM]
CCCCOC(=O)CCC(=O)OCCCC [Dibutyl butanedioate] | > 90

Same assay, conditions: rat, gh3-tre-luc cells, AC50 (uM) modified / 1000, Tox21_110001=Tox21_302358; viability, 1 nM T3 present, 24 h

Compound | CC50 at 24 h [µM]
CN(C)N [1,1-Dimethylhydrazine] | > 90
